Results on four compounds are retold here after US11845809B2, “Maleate of SCY-635 and uses thereof in medicine” (priority 2018, dated 2023).

For orientation: solubility means how much of the substance goes into solution per volume.

≈ marks a conversion by molar mass, not a printed value. Like-named read-outs stand apart in the source and are kept apart here.

Data set [1] is classed as physicochemical. The note with it: for Final pH of supernatant: FaSSIF, RT. An excerpt:
(§1) Crystalline maleate was recommended as a leading salt and further evaluated by kinetic solubility and physicochemical stability.

The format of data set [2] is physicochemical. The settings on record: for Final pH of supernatant: water, RT.
From the text: as §1

Data set [3] can be described thus: One-week physicochemical stability evaluation (HPLC purity). The settings on record: for Purity (area%) / Purity of initial (%): open, one week. Here is the method: Physicochemical stability of crystalline maleate was evaluated under 25° C./60% RH-open and 40° C./75% RH-open for one week.
Another data set is described as follows: physchem. It is filed as physicochemical. The note with it: fassif, thermodynamic from solid, Solubility (S).
The conditions of data set [4]: in vivo, cited from earlier work.
For another data set, the system named is calcineurin. The settings on record: at concentrations up to 2 μM; cited from earlier work.
A further data set has as its target cyclophilin A (Homo sapiens, UniProt P62937). The settings on record: cited from earlier work.
Another data set has as its target P-glycoprotein (Homo sapiens, UniProt P08183). The settings on record: cited from earlier work.
Data set [5] relates to hepatitis C virus (HCV). The note with it: cited from earlier work.
The subject of the next data set is cytochrome P450 2B6. The note with it: cited from earlier work.
Another data set deals with cytochrome P450 3A4. The settings on record: cited from earlier work.
In data set [6] the test system is stimulated human peripheral blood mononuclear cells. The settings on record: cited from earlier work.
The test system of the next data set is cytochrome P450 1A2. The note with it: cited from earlier work.
A further data set deals with stimulated Jurkat cells. The note with it: cited from earlier work.
For data set [7], the system named is hepatitis C virus (HCV). The settings on record: cited from earlier work. This is another data set of the same source.

Sequence of P-glycoprotein (P08183 whole entry): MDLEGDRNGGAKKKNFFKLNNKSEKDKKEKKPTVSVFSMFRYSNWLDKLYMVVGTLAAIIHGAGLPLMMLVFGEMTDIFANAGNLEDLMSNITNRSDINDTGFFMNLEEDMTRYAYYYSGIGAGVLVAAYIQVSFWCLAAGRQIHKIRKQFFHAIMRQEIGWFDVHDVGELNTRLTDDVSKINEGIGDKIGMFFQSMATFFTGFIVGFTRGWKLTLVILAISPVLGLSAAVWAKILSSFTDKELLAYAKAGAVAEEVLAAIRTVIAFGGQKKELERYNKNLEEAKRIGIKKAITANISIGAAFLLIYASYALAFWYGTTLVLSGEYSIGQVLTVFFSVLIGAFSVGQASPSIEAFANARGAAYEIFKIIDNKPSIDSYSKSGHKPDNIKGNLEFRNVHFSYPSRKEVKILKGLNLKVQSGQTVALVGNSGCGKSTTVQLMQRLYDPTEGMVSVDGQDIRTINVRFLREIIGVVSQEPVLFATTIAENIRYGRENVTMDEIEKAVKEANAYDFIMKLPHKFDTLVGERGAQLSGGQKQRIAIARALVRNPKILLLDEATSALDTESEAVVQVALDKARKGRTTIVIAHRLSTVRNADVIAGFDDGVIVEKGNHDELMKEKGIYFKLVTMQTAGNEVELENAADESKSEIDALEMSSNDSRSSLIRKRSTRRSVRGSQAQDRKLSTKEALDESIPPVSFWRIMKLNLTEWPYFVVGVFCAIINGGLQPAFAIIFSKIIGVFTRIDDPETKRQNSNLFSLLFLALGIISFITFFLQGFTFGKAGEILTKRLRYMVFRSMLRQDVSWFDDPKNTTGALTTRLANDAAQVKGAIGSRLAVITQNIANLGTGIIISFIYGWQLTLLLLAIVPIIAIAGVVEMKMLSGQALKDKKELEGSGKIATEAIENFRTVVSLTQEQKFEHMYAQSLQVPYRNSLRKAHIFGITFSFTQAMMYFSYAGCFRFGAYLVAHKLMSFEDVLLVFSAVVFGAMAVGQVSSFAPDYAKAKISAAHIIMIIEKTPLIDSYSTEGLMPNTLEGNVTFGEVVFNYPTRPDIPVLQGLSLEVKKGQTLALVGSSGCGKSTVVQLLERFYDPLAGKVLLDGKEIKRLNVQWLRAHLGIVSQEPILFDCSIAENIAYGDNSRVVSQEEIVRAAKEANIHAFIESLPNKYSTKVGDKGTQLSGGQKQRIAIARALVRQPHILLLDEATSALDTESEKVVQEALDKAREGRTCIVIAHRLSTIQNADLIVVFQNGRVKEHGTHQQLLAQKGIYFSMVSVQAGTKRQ
Sequence of cyclophilin A (P62937 whole entry, species assumed): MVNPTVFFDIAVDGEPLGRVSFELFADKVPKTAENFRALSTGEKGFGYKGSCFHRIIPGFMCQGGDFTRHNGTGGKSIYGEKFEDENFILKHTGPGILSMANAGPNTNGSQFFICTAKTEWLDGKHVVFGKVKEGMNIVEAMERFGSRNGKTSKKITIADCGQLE

Regarding Maleate, the “Solubility compared with amorphous and crystalline freebase” value in [1] and in data set [2] was “significant solubility improvement” each time. For the same compound, the “Final pH of supernatant” value in data set [1] (6 hrs) turned out to be 6.0; in data set [2] (6 hrs) it was 4.9. Besides, the “Purity (area%)” value in data set [3] (25° C./60% RH) and in data set [3] (40° C./75% RH) was 100.0 area% in each case. The “Purity of initial (%)” value in data set [3] (25° C./60% RH) and in data set [3] (40° C./75% RH) was 100.0% each time. Moreover, the Chemical stability result in data set [3] (both 25° C./60% RH and 40° C./75% RH, at least one week) was “good chemical stability”.
As to `C/C=C/C[C@@H](C)[C@@H](O)[C@H]1C(=O)N[C@@H](CC)C(=O)N(C)[C@H](SCCN(C)C)C(=O)N(C)[C@@H](CC(C)(C)O)C(=O)N[C@@H](C(C)C)C(=O)N(C)[C@@H](CC(C)C)C(=O)N[C@@H](C)C(=O)N[C@H](C)C(=O)N(C)[C@@H](CC(C)C)C(=O)N(C)[C@@H](CC(C)C)C(=O)N(C)[C@@H](C(C)C)C(=O)N1C` [Freebase Type A], the “Final pH of supernatant” value in [1] (2 hrs) amounted to 6.8; in [1] (4 hrs), 6.8; in data set [1] (6 hrs), 7.0; in data set [2] (2 hrs), 6.7; in [2] (4 hrs), 6.5; in data set [2] (6 hrs), 6.6. Besides, the “Solubility (S)” value in [2] (2 h) came out at 100 µg/mL (≈ 75.7 µM); in [2] (4 h), 100 µg/mL (≈ 75.7 µM); in data set [2] (6 h) it was 300 µg/mL (≈ 227 µM). Besides, the concentration in solution in “physchem” (solubility at 2 h) was 3700 µg/mL (≈ 2800 µM). Besides, the solubility at 4 h in “physchem” was determined as 4700 µg/mL (≈ 3560 µM). This compound yielded a solubility at 6 h in the data set “physchem” of 5600 µg/mL (≈ 4240 µM).
As for `C/C=C/C[C@@H](C)[C@@H](O)[C@H]1C(=O)N[C@@H](CC)C(=O)N(C)[C@H](SCCN(C)C)C(=O)N(C)[C@@H](CC(C)(C)O)C(=O)N[C@@H](C(C)C)C(=O)N(C)[C@@H](CC(C)C)C(=O)N[C@@H](C)C(=O)N[C@H](C)C(=O)N(C)[C@@H](CC(C)C)C(=O)N(C)[C@@H](CC(C)C)C(=O)N(C)[C@@H](C(C)C)C(=O)N1C` [Freebase amorphous], the “Final pH of supernatant” value came to 6.9 in data set [1] (2 hrs); 6.9 in [1] (4 hrs); 7.0 in data set [1] (6 hrs); 4.9 in data set [2] (2 hrs); 4.7 in data set [2] (4 hrs); 6.2 in data set [2] (6 hrs).
For `C/C=C/C[C@@H](C)[C@@H](O)[C@H]1C(=O)N[C@@H](CC)C(=O)N(C)[C@H](SCCN(C)C)C(=O)N(C)[C@@H](CC(C)(C)O)C(=O)N[C@@H](C(C)C)C(=O)N(C)[C@@H](CC(C)C)C(=O)N[C@@H](C)C(=O)N[C@H](C)C(=O)N(C)[C@@H](CC(C)C)C(=O)N(C)[C@@H](CC(C)C)C(=O)N(C)[C@@H](C(C)C)C(=O)N1C` [SCY-635, (3S,6S,9S,12R,15S,18S,21S,24S,27R,30S,33S)-27-((2-(dimethylamino)ethyl)thio)-30-ethyl-33-((1R,2R,E)-1-hydroxy-2-methylhex-4-en-1-yl)-24-(2-hydroxy-2-methylpropyl)-6,9,18-triisobutyl-3,21-diisopropyl-1,4,7,10,12,15,19,25,28-nonamethyl-1,4,7,10,13,16,19,22,25,28,31-undecaazacyclotritriacontan-2,5,8,11,14,17,20,23,26,29,32-undecaone], in data set [4] (po), the “Blood and liver concentrations of parent drug versus replicon 50% effective dose” value is recorded as “exceeded the 50% effective dose”. In [4], the Oral bioavailability result is recorded as “orally bioavailable”. For the same compound, the “Inhibition of calcineurin phosphatase activity” value in the data set with calcineurin is “no detectable inhibition”. Besides, the “Inhibition of peptidyl prolyl isomerase activity of cyclophilin A” value on cyclophilin A was “at nanomolar concentrations”. Further, at P-glycoprotein, the P-glycoprotein inhibition result is on record as “weak inhibitor”. At P-glycoprotein, the P-glycoprotein substrate result was “poor substrate”. In addition, the “Antiviral activity in combination” value is listed as “synergistic antiviral activity” with hepatitis C virus (HCV) [5] (with alpha interferon 2b) and “additive antiviral activity” in the data set on hepatitis C virus (HCV) [5] (with ribavirin). Also, the “Induction of cytochrome P450 2B6” value in the data set on cytochrome P450 2B6 was “did not induce”. In addition, the “Induction of cytochrome P450 3A4” value with cytochrome P450 3A4 is on record as “did not induce”. For the same compound, the “Inhibition of interleukin-2 secretion compared with cyclosporine” value (in [6]; in the data set with stimulated Jurkat cells) was “weaker inhibitor” each time. Also, the “Induction of cytochrome P450 1A2” value in the data set on cytochrome P450 1A2 is listed as “did not induce”. In addition, the “Suppression of HCV replication in vitro” value in the data set on hepatitis C virus (HCV) [7] is on record as “potent suppression”.
